Reference: patent US9409898B2, “Substituted pyrazole compounds as CRAC modulators” (LUPIN LIMITED, priority 2012, dated 2016)

Test system: IL-2 secretion
Experiment: Inhibition of IL-2 secretion in PHA-stimulated Jurkat T cells (ELISA)
Format: cell-based
Conditions: Homo sapiens, PHA stimulation, 20 to 24 hours, IL-2 by ELISA
Description: The CRAC channel modulatory activity of the compounds were thus evaluated by measuring the secretion of IL-2 by antigen stimulated T-cells in vitro. Alternatively, such activity can also be evaluated by assay methods known to one skilled in the art.
Inhibition of IL-2 secretion: Jurkat T cells were seeded at a density of 0.5 to 1 million cells per well in RPMI medium. Test compounds from this invention were added to the cells at different concentrations. This was followed by the addition of PHA, a T cell mitogen after 10 minutes. The cells were then incubated for 20 to 24 hours in a CO2 incubator at 37° C. After incubation with the compounds, cells were centrifuged, the supernatant was collected and processed for ELISA to quantitate the amount of IL-2 secreted. A commercial ELISA kit (R&D Systems, Inc. Minneapolis, Minn., USA) was used to estimate the IL-2 concentrations. Amount of IL-2 secreted by cells stimulated with PHA was considered as a 100% maximal signal and the decrease in amount of IL-2 secreted by cells treated with the test compounds was expressed as percent inhibition of the maximal signal. The dose response data was analyzed using 4-parametric sigmoidal dose response (variable slope) curve—fit.

SMILES | IC50
Cn1nc(-c2cc(C(F)(F)F)n(-c3ccc(NC(=O)c4cc(F)c(F)cc4F)nc3)n2)oc1=O [Example 43, 2,4,5-Trifluoro-N-(5-(3-(4-methyl-5-oxo-4,5-dihydro-1,3,4-oxadiazol-2-yl)-5-(trifluoromethyl)-1H-pyrazol-1-yl)pyridin-2-yl)benzamide] | < 100 nM
CC1(CO)CC(c2cc(C(F)(F)F)n(-c3ccc(NCc4c(F)cccc4F)cn3)n2)=NO1 (centres unmarked) [Example 33, (3-(1-(5-((2,6-Difluorobenzyl)amino)pyridin-2-yl)-5-(trifluoromethyl)-1H-pyrazol-3-yl)-5-methyl-4,5-dihydroisoxazol-5-yl)methanol] | < 100 nM
Cn1c(-c2cc(C(F)(F)F)n(-c3ccc(NC(=O)c4c(F)cccc4F)cn3)n2)noc1=O [Example 19, 2,6-Difluoro-N-(6-(3-(4-methyl-5-oxo-4,5-dihydro-1,2,4-oxadiazol-3-yl)-5-(trifluoromethyl)-1H-pyrazol-1-yl)pyridin-3-yl)benzamide] | 100 to 1000 nM
Cn1nc(-c2cc(C(F)F)nn2-c2ccc(NCc3c(F)cccc3F)cn2)oc1=O [Example 13, 5-(1-(5-((2,6-Difluorobenzyl)amino)pyridin-2-yl)-3-(difluoromethyl)-1H-pyrazol-5-yl)-3-methyl-1,3,4-oxadiazol-2(3H)-one] | > 1000 nM
Cn1nc(-c2cc(C(F)(F)F)n(-c3ccc(NCc4c(F)cccc4Cl)nc3)n2)oc1=O [Example 52] | < 100 nM
CC1(C(N)=O)CC(c2cc(C(F)(F)F)n(-c3ccc(NC(=O)c4c(F)cccc4F)cn3)n2)=NO1 (centres unmarked) [Example 37, 3-(1-(5-(2,6-Difluorobenzamido)pyridin-2-yl)-5-(trifluoromethyl)-1H-pyrazol-3-yl)-5-methyl-4,5-dihydroisoxazole-5-carboxamide] | < 100 nM
Cn1nc(-c2cc(C(F)(F)F)n(-c3ccc(NC(=O)c4c(F)cccc4Cl)nc3)n2)oc1=O [Example 39, 2-Chloro-6-fluoro-N-(5-(3-(4-methyl-5-oxo-4,5-dihydro-1,3,4-oxadiazol-2-yl)-5-(trifluoromethyl)-1H-pyrazol-1-yl)pyridin-2-yl)benzamide] | < 100 nM
Cc1cccc(F)c1C(=O)Nc1ccc(-n2nc(-c3nn(C)c(=O)o3)cc2C(F)(F)F)cn1 [Example 40, 2-Fluoro-6-methyl-N-(5-(3-(4-methyl-5-oxo-4,5-dihydro-1,3,4-oxadiazol-2-yl)-5-(trifluoromethyl)-1H-pyrazol-1-yl)pyridin-2-yl)benzamide] | < 100 nM
Cn1nc(-c2cc(C(F)(F)F)n(-c3ccc(NC(=O)c4ccccc4F)nc3)n2)oc1=O [Example 41, 2-Fluoro-N-(5-(3-(4-methyl-5-oxo-4,5-dihydro-1,3,4-oxadiazol-2-yl)-5-(trifluoromethyl)-1H-pyrazol-1-yl)pyridin-2-yl)benzamide] | < 100 nM
Cn1nc(-c2cc(C(F)(F)F)n(-c3ccc(NCc4c(F)cccc4F)cn3)n2)oc1=O [Example 22, 5-(1-(5-((2,6-Difluorobenzyl)amino)pyridin-2-yl)-5-(trifluoromethyl)-1H-pyrazol-3-yl)-3-methyl-1,3,4-oxadiazol-2(3H)-one] | < 100 nM
Cn1nc(-c2cc(C(F)(F)F)n(-c3ccc(NC(=O)c4ccccc4Cl)nc3)n2)oc1=O [Example 47, 2-Chloro-N-(5-(3-(4-methyl-5-oxo-4,5-dihydro-1,3,4-oxadiazol-2-yl)-5-(trifluoromethyl)-1H-pyrazol-1-yl)pyridin-2-yl)benzamide] | < 100 nM
CC1(C)ON=C(c2cc(C(F)(F)F)n(-c3ccc(NC(=O)c4c(F)cccc4Cl)cn3)n2)C1=O [Example 15, 2-Chloro-N-(6-(3-(5,5-dimethyl-4-oxo-4,5-dihydroisoxazol-3-yl)-5-(trifluoromethyl)-1H-pyrazol-1-yl)pyridin-3-yl)-6-fluorobenzamide] | < 100 nM
Cc1cccc(F)c1C(=O)Nc1ccc(-n2nc(C3=NN(C)C(=O)C3(C)C)cc2C(F)(F)F)nc1 [Example 18, 2-Fluoro-6-methyl-N-(6-(1′,4′,4′-trimethyl-5′-oxo-5-(trifluoromethyl)-4′,5′-dihydro-1H,1′H-[3,3′-bipyrazol]-1-yl)pyridin-3-yl)benzamide] | < 100 nM
CN1N=C(c2cc(C(F)(F)F)n(-c3ccc(NC(=O)c4c(F)cccc4Cl)cn3)n2)C(C)(C)C1=O [Example 17, 2-Chloro-6-fluoro-N-(6-(1′,4′,4′-trimethyl-5′-oxo-5-(trifluoromethyl)-4′,5′-dihydro-1H,1′H-[3,3′-bipyrazol]-1-yl)pyridin-3-yl)benzamide] | 100 to 1000 nM
Cc1cccc(F)c1C(=O)Nc1ccc(-n2nc(-c3nn(C)c(=O)o3)cc2C(F)(F)F)nc1 [Example 10, 2-Fluoro-6-methyl-N-(6-(3-(4-methyl-5-oxo-4,5-dihydro-1,3,4-oxadiazol-2-yl)-5-(trifluoromethyl)-1H-pyrazol-1-yl)pyridin-3-yl)benzamide] | < 100 nM
Cn1nc(-c2cc(C(F)(F)F)n(-c3ccc(NC(=O)c4c(F)cccc4F)nc3)n2)oc1=O [Example 38, 2,6-Difluoro-N-(5-(3-(4-methyl-5-oxo-4,5-dihydro-1,3,4-oxadiazol-2-yl)-5-(trifluoromethyl)-1H-pyrazol-1-yl)pyridin-2-yl)benzamide] | < 100 nM
CC(=O)N1N=C(c2cc(C(F)(F)F)n(-c3ccc(NC(=O)c4c(F)cccc4F)cn3)n2)OC1(C)C [Example 20, N-(6-(3-(4-Acetyl-5,5-dimethyl-4,5-dihydro-1,3,4-oxadiazol-2-yl)-5-(trifluoromethyl)-1H-pyrazol-1-yl)pyridin-3-yl)-2,6-difluorobenzamide] | 100 to 1000 nM
Cn1nc(-c2cc(C(F)(F)F)n(-c3ccc(NC(=O)c4ccc5ccccc5c4)nc3)n2)oc1=O [Example 50, N-(5-(3-(4-Methyl-5-oxo-4,5-dihydro-1,3,4-oxadiazol-2-yl)-5-(trifluoromethyl)-1H-pyrazol-1-yl)pyridin-2-yl)-2-naphthamide] | 100 to 1000 nM
Cc1cccc(F)c1C(=O)Nc1ccc(-n2nc(C(F)(F)F)cc2-c2nn(C)c(=O)o2)nc1 [Example 2, 2-Fluoro-6-methyl-N-(6-(5-(4-methyl-5-oxo-4,5-dihydro-1,3,4-oxadiazol-2-yl)-3-(trifluoromethyl)-1H-pyrazol-1-yl)pyridin-3-yl)benzamide] | 100 to 1000 nM
Cn1nc(-c2cc(C(F)(F)F)n(-c3ccc(C(=O)Nc4c(F)cccc4F)cn3)n2)oc1=O [Example 54, N-(2,6-Difluorophenyl)-6-(3-(4-methyl-5-oxo-4,5-dihydro-1,3,4-oxadiazol-2-yl)-5-(trifluoromethyl)-1H-pyrazol-1-yl)nicotinamide] | 100 to 1000 nM
Cn1nc(-c2cc(C(F)(F)F)n(-c3ccc(NC(=O)c4ccc(F)cc4F)nc3)n2)oc1=O [Example 45, 2,4-Difluoro-N-(5-(3-(4-methyl-5-oxo-4,5-dihydro-1,3,4-oxadiazol-2-yl)-5-(trifluoromethyl)-1H-pyrazol-1-yl)pyridin-2-yl)benzamide] | < 100 nM
Cc1cccc(C(=O)Nc2ccc(-n3nc(-c4nn(C)c(=O)o4)cc3C(F)(F)F)cn2)c1C [Example 46, 2,3-Dimethyl-N-(5-(3-(4-methyl-5-oxo-4,5-dihydro-1,3,4-oxadiazol-2-yl)-5-(trifluoromethyl)-1H-pyrazol-1-yl)pyridin-2-yl)benzamide] | < 100 nM
Cn1nc(-c2cc(C3CC3)n(-c3ccc(NC(=O)c4c(F)cccc4F)cn3)n2)oc1=O [Example 29, N-(6-(5-Cyclopropyl-3-(4-methyl-5-oxo-4,5-dihydro-1,3,4-oxadiazol-2-yl)-1H-pyrazol-1-yl)pyridin-3-yl)-2,6-difluorobenzamide] | 100 to 1000 nM
Cn1nc(-c2cc(C(F)(F)F)n(-c3ccc(NC(=O)c4cccc(F)c4F)nc3)n2)oc1=O [Example 42, 2,3-Difluoro-N-(5-(3-(4-methyl-5-oxo-4,5-dihydro-1,3,4-oxadiazol-2-yl)-5-(trifluoromethyl)-1H-pyrazol-1-yl)pyridin-2-yl)benzamide] | < 100 nM
Cc1cccc(F)c1CNc1ccc(-n2nc(-c3nn(C)c(=O)o3)cc2C(F)(F)F)cn1 [Example 53, 5-(1-(6-((2-Fluoro-6-methylbenzyl)amino)pyridin-3-yl)-5-(trifluoromethyl)-1H-pyrazol-3-yl)-3-methyl-1,3,4-oxadiazol-2(3H)-one] | < 100 nM
Cn1nc(-c2cc(C(F)(F)F)n(-c3ccc(C(=O)Nc4c(F)cccc4Cl)cn3)n2)oc1=O [Example 55, N-(2-Chloro-6-fluorophenyl)-6-(3-(4-methyl-5-oxo-4,5-dihydro-1,3,4-oxadiazol-2-yl)-5-(trifluoromethyl)-1H-pyrazol-1-yl)nicotinamide] | < 100 nM
Cc1cc(-c2nn(C)c(=O)o2)nn1-c1ccc(NC(=O)c2c(F)cccc2F)cn1 [Example 31, 2,6-Difluoro-N-(6-(5-methyl-3-(4-methyl-5-oxo-4,5-dihydro-1,3,4-oxadiazol-2-yl)-1H-pyrazol-1-yl)pyridin-3-yl)benzamide] | > 1000 nM
CC(=O)N1N=C(c2cc(C(F)(F)F)n(-c3ccc(NCc4c(F)cccc4F)cn3)n2)OC1(C)C [Example 27, 1-(5-(1-(5-((2,6-Difluorobenzyl)amino)pyridin-2-yl)-5-(trifluoromethyl)-1H-pyrazol-3-yl)-2,2-dimethyl-1,3,4-oxadiazol-3(2H)-yl)ethanone] | 100 to 1000 nM
Cn1nc(-c2cc(C(F)(F)F)n(-c3ccc(NCc4c(F)cccc4F)nc3)n2)oc1=O [Example 51, 5-(1-(6-((2,6-Difluorobenzyl)amino)pyridin-3-yl)-5-(trifluoromethyl)-1H-pyrazol-3-yl)-3-methyl-1,3,4-oxadiazol-2(3H)-one] | < 100 nM
